This note sets out measurements from patent US20230091225A1, “Bifunctional chimeric heterocyclic compounds for targeted degradation of androgen receptors and use thereof” (HINOVA PHARMACEUTICALS INC., priority 2019, published 2023).

In the assay the target is T1, androgen receptor (AR) (Homo sapiens, UniProt P10275).
T1 sequence (P10275 1-920): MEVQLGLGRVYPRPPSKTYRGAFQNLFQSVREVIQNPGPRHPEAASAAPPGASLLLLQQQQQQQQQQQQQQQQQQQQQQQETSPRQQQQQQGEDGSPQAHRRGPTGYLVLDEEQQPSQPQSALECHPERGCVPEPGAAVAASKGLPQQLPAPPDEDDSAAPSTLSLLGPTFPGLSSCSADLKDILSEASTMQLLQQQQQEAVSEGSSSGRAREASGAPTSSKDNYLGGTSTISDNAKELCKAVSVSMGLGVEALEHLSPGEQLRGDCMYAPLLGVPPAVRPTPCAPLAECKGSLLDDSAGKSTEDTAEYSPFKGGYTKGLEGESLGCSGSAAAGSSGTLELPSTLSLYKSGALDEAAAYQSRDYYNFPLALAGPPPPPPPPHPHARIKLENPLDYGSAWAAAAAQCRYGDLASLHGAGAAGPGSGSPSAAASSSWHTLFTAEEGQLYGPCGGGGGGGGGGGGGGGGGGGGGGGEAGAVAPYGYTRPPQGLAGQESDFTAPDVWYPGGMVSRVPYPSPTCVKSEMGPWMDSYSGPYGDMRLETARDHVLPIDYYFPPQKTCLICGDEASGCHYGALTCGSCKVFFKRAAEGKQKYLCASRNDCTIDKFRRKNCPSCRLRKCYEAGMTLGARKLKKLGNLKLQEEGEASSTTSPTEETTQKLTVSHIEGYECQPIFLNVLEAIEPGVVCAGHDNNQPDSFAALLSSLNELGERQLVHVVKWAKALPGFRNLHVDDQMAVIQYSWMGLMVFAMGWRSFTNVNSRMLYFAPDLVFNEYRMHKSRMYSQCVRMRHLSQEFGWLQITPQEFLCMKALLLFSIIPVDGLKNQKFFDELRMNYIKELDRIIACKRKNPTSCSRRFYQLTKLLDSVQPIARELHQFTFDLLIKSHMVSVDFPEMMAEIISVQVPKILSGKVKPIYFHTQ
Briefly: Degradation of androgen receptor (AR) protein in VCaP cells by Western blot. Format: cell-based. The note with it: percentage of degraded AR at 100 nM, VCaP cells, 16 h. Summed up:
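VCaP cells (5×10^5/well) were seeded overnight, then treated in duplicate for 16 h with compound in 0.1% DMSO final. Lysates (30 μg protein) were immunoblotted for AR (D6F11) with β-actin as loading control, detected by ECL chemiluminescence.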
Background: A western blot detects proteins with antibodies after separation by electrophoresis.

The structures appear in SMILES notation.

For `N#Cc1ccc(O[C@H]2CC[C@H](NC(=O)c3ccc(N4CCC(CN5CCC6(C5)CN(c5cc7c(cc5F)C(=O)N(C5CCC(=O)NC5=O)C7=O)C6)CC4)nn3)CC2)cc1Cl` (some centres unmarked) [Compound 184, N-((1r,4r)-4-(3-chloro-4-cyanophenoxy)cyclohexyl)-6-(4-((2-(2-(2,6-dioxopiperidin-3-yl)-6-fluoro-1,3-dioxoisoindolin-5-yl)-2,6-diazaspiro[3.4]octan-6-yl)methyl)piperidin-1-yl)pyridazine-3-formamide], the inhibition (as a rule, the drop in the measured response relative to a control, in per cent) at 0.1 µM is above 80%.
Still for that read-out and setting: then `N#Cc1ccc(O[C@H]2CC[C@H](NC(=O)c3ccc(N4CCC(CN5CCC6(C5)CN(c5ccc7c(c5)C(=O)N(C5CCC(=O)NC5=O)C7=O)C6)CC4)nn3)CC2)cc1Cl` (some centres unmarked) [Compound 185, N-((1r,4r)-4-(3-chloro-4-cyanophenoxy)cyclohexyl)-6-(4-((2-(2-(2,6-dioxopiperidin-3-yl)-1,3-dioxoisoindolin-5-yl)-2,6-diazaspiro[3.4]octan-6-yl)methyl)piperidin-1-yl)pyridazine-3-formamide], with above 80%.
`N#Cc1ccc(OC2CCC(NC(=O)c3cnc(N4C[C@@H]5CN(C6CCN(c7cc8c(cc7F)C(=O)N(C7CCC(=O)NC7=O)C8=O)CC6)C[C@@H]5C4)nc3)CC2)cc1Cl` (stereo partly drawn) [Compound 220, N-((1s,4S)-4-(3-chloro-4-cyanophenoxy)cyclohexyl)-2-((3aR,6aS)-5-(1-(2-(2,6-dioxopiperidin-3-yl)-6-fluoro-1,3-dioxoisoindolin-5-yl)piperidine-4-yl)hexahydropyrrolo[3,4-c]pyrrol-2(1H)-yl)pyrimidine-5-carboxamide]: the “% degradation” value is “D (<25%)”.
Compound `CC1(C)[C@H](NC(=O)c2ccc(N3CCC(N4C[C@H]5CN(c6cc7c(cc6F)C(=O)N(C6CCC(=O)NC6=O)C7=O)C[C@H]5C4)CC3)nn2)C(C)(C)[C@H]1Oc1ccc(C#N)c(Cl)c1` (stereo partly drawn) [Compound 221, N-((1r,3R)-3-(3-chloro-4-cyanophenoxy)-2,2,4,4-tetramethylcyclobutyl)-6-(4-((3aR,6aS)-5-(2-(2,6-dioxopiperidin-3-yl)-6-fluoro-1,3-dioxoisoindolin-5-yl)hexahydropyrrolo[3,4-c]pyrrol-2(1H)-yl)piperidin-1-yl)pyridazine-3-carboxamide] registered an inhibition at 0.1 µM of 25 to 49%.
Compound `N#Cc1ccc(O[C@H]2CC[C@H](NC(=O)c3ccc(N4C[C@H]5C[C@@H](CN6CC7CN(c8cc9c(cc8F)C(=O)N(C8CCC(=O)NC8=O)C9=O)CC7C6)C[C@H]5C4)nn3)CC2)cc1Cl` (stereo partly drawn) [Compound 222, N-((1r,4r)-4-(3-chloro-4-cyanophenoxy)cyclohexyl)-6-((3aR,5R, 6aS)-5-((5-(2-(2,6-dioxopiperidin-3-yl)-6-fluoro-1,3-dioxoisoindolin-5-yl)hexahydropyrrolo[3,4-c]pyrrol-2(1H)-yl)methyl)hexahydrocyclopenta[c]pyrrole-2(1H)-yl)pyridazine-3-formamide] had an inhibition at 0.1 µM above 80%.
For `N#Cc1ccc(O[C@H]2CC[C@H](NC(=O)c3ccc(N4CC(N5CC6CN(c7cc8c(cc7F)C(=O)N(C7CCC(=O)NC7=O)C8=O)CC6C5)C4)nn3)CC2)cc1Cl` (some centres unmarked) [Compound 223, N-((1r,4r)-4-(3-chloro-4-cyanophenoxy)cyclohexyl)-6-(3-(5-(2-(2,6-dioxopiperidin-3-yl)-6-fluoro-1,3-dioxoisoindolin-5-yl)hexahydropyrrolo[3,4-c]pyrrol-2(1H)-yl)azitidin-1-yl)pyridazine-3-carboxamide], the inhibition at 0.1 µM is above 80%.
The same measure, in the same setting: then `N#Cc1ccc(O[C@H]2CC[C@H](NC(=O)c3ccc(N4C[C@H]5C[C@@H](CN6CCN(c7cc8c(cc7F)C(=O)N(C7CCC(=O)NC7=O)C8=O)CC6)C[C@H]5C4)nn3)CC2)cc1Cl` (stereo partly drawn) [Compound 224, N-((1r,4r)-4-(3-chloro-4-cyanophenoxy)cyclohexyl)-6-((3aR,5R,6aS)-5-((4-(2-(2,6-dioxopiperidin-3-yl)-6-fluoro-1,3-dioxoisoindolin-5-yl)piperazin-1-yl)methyl)hexahydrocyclopenta[c]pyrrole-2(1H)-yl)pyridazine-3-formamide], with 50 to 79%; and `N#Cc1ccc(O[C@H]2CC[C@H](NC(=O)c3cnc(N4CC(N5CC6CN(c7cc8c(cc7F)C(=O)N(C7CCC(=O)NC7=O)C8=O)CC6C5)C4)cn3)CC2)cc1Cl` (some centres unmarked) [Compound 225, N-((1r,4r)-4-(3-chloro-4-cyanophenoxy)cyclohexyl)-5-(3-(5-(2-(2,6-dioxopiperidin-3-yl)-6-fluoro-1,3-dioxoisoindolin-5-yl)hexahydropyrrolo[3,4-c]pyrrol-2(1H)-yl)azitidin-1-yl)pyrazine-2-carboxamide], with 50 to 79%; and `N#Cc1ccc(O[C@H]2CC[C@H](NC(=O)c3ccc(N4CCN(CC5C[C@@H]6CN(c7cc8c(cc7F)C(=O)N(C7CCC(=O)NC7=O)C8=O)C[C@@H]6C5)CC4)nn3)CC2)cc1Cl` (some centres unmarked) [Compound 226], with 50 to 79%.
`N#Cc1ccc(Oc2ccc(NC(=O)c3ccc(N4CCC(CN5CCN(c6cc7c(cc6F)C(=O)N(C6CCC(=O)NC6=O)C7=O)CC5)CC4)nn3)cc2)cc1Cl` (centres unmarked) [Compound 227, N-(4-(3-chloro-4-cyanophenoxy)phenyl)-6-(4-((4-(2-(2,6-dioxopiperidin-3-yl)-6-fluoro-1,3-dioxoisoindolin-5-yl)piperazin-1-yl)methyl)piperidin-1-yl)pyridazine-3-formamide] yielded an inhibition at 0.1 µM of 25 to 49%.
`N#Cc1ccc(O[C@H]2CC[C@H](NC(=O)c3cnc(N4CCC(N5CC6(CCN(c7cc8c(cc7F)C(=O)N(C7CCC(=O)NC7=O)C8=O)CC6)C5)CC4)cn3)CC2)cc1Cl` (some centres unmarked) [Compound 228, N-((1r,4r)-4-(3-chloro-4-cyanophenoxy)cyclohexyl)-5-(4-(7-(2-(2,6-dioxopiperidin-3-yl)-6-fluoro-1,3-dioxoisoindolin-5-yl)-2,7-diazaspiro[3.5]nonan-2-yl)piperidin-1-yl)pyrazine-2-carboxamide]: the inhibition at 0.1 µM was above 80%.
On the same count and under the same terms, then `N#Cc1ccc(O[C@H]2CC[C@H](NC(=O)c3cnc(N4CCC(N5CC6(CCN(c7ccc8c(c7)C(=O)N(C7CCC(=O)NC7=O)C8=O)CC6)C5)CC4)cn3)CC2)cc1Cl` (some centres unmarked) [Compound 229, N-((1r,4r)-4-(3-chloro-4-cyanophenoxy)cyclohexyl)-5-(4-(7-(2-(2,6-dioxopiperidin-3-yl)-1,3-dioxoisoindolin-5-yl)-2,7-diazaspiro[3.5]nonan-2-yl)piperidin-1-yl)pyrazine-2-carboxamide], with above 80%.
As to `N#Cc1ccc(OC2CCC(NC(=O)c3ccc(N4CCC(CN5CCC6(CC5)CN(c5ccc7c(c5)C(=O)N(C5CCC(=O)NC5=O)C7=O)C6)CC4)nn3)CC2)cc1Cl` (centres unmarked) [Compound 230, N-((1r,4r)-4-(3-chloro-4-cyanophenoxy)cyclohexyl)-6-(4-((2-(2-(2,6-dioxopiperidin-3-yl)-1,3-dioxoisoindolin-5-yl)-2,7-diazaspiro[3.5]nonan-7-yl)methyl)piperidin-1-yl)pyridazine-3-carboxamide], the “% degradation” value is on record as “A (>80%)”.
Turning to `N#Cc1ccc(O[C@H]2CC[C@H](NC(=O)c3ccc(N4CCC(CN5CCC6(CC5)CN(c5cc7c(cc5F)C(=O)N(C5CCC(=O)NC5=O)C7=O)C6)CC4)nn3)CC2)cc1Cl` (some centres unmarked) [Compound 231, N-((1r,4r)-4-(3-chloro-4-cyanophenoxy)cyclohexyl)-6-(4-((2-(2-(2-,2,6-dioxopiperidin-3-yl)-6-fluoro-1,3-dioxoisoindolin-5-yl)-2,7-diazaspiro[3.5]nonan-7-yl)methyl)piperidin-1-yl)pyridazine-3-carboxamide], the inhibition at 0.1 µM was above 80%.
